Test results reported in ChEMBL document CHEMBL1201862, “PubChem BioAssay data set” (2004).
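The compound was tested at five concentrations on cells cultured in 96-well plates, with a 48-hour exposure period. GI50 is the concentration that inhibits growth by half.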 The source made the active and inactive calls. Cut-off read from the data, not from the text of the source: active = GI50 up to about 1.1 µM and inactive = higher.

How the values were obtained:
Assay in all cases: NCI-60 cell line screen, 48 h
[1] = system: SF-539
[2] = system: MOLT-4
[3] = system: SF-295
[4] = system: SW-620
[5] = system: HT-29
[6] = system: MDA-N
[7] = system: UACC-257
[8] = system: TK-10
[9] = system: NCI-H460
[10] = system: OVCAR-4
[11] = system: HL-60
[12] = system: SF-268
[13] = system: COLO 205
[14] = system: K562
[15] = system: LOX IMVI
[16] = system: HCT-116
[17] = system: U-251

Compound: O=C1c2ccccc2C(=O)N1c1ccc(Cc2ccc(N3C(=O)c4ccccc4C3=O)cc2)cc1
- GI50 [1]: > 80.9 µM (inactive)
- GI50 [2]: 3.02 µM (inactive)
- GI50 [3]: > 50.7 µM (inactive)
- GI50 [4]: > 100 µM (inactive)
- GI50 [5]: > 100 µM (inactive)
- GI50 [6]: > 100 µM (inactive)
- GI50 [7]: > 100 µM (inactive)
- GI50 [8]: > 100 µM (inactive)
- GI50 [9]: > 100 µM (inactive)
- GI50 [10]: > 100 µM (inactive)
- GI50 [11]: < 0.01 µM (active)
- GI50 [12]: > 100 µM (inactive)
- GI50 [13]: > 100 µM (inactive)
- GI50 [14]: 0.853 µM (active)
- GI50 [15]: > 100 µM (inactive)
- GI50 [16]: > 100 µM (inactive)
- GI50 [17]: > 100 µM (inactive)

Compound: O=c1[nH]c2ccsc2c(=O)n1COCc1ccccc1
- GI50 [1]: > 100 µM (inactive)
- GI50 [2]: > 100 µM (inactive)
- GI50 [3]: > 100 µM (inactive)
- GI50 [4]: > 100 µM (inactive)
- GI50 [5]: > 100 µM (inactive)
- GI50 [6]: > 100 µM (inactive)
- GI50 [7]: > 100 µM (inactive)
- GI50 [8]: > 100 µM (inactive)
- GI50 [9]: > 100 µM (inactive)
- GI50 [10]: > 100 µM (inactive)
- GI50 [11]: > 100 µM (inactive)
- GI50 [12]: > 100 µM (inactive)
- GI50 [13]: > 100 µM (inactive)
- GI50 [14]: > 100 µM (inactive)
- GI50 [15]: > 100 µM (inactive)
- GI50 [16]: > 100 µM (inactive)
- GI50 [17]: > 100 µM (inactive)

Compound: O=C(NCCCCCCNCc1cccc2ccccc12)Nc1cccc2ccccc12
- GI50 [1]: > 100 µM (inactive)
- GI50 [2]: > 100 µM (inactive)
- GI50 [3]: > 100 µM (inactive)
- GI50 [4]: > 100 µM (inactive)
- GI50 [5]: > 100 µM (inactive)
- GI50 [6]: > 100 µM (inactive)
- GI50 [7]: > 100 µM (inactive)
- GI50 [8]: > 100 µM (inactive)
- GI50 [9]: > 100 µM (inactive)
- GI50 [10]: > 100 µM (inactive)
- GI50 [11]: > 100 µM (inactive)
- GI50 [12]: > 100 µM (inactive)
- GI50 [13]: > 100 µM (inactive)
- GI50 [14]: > 100 µM (inactive)
- GI50 [15]: > 100 µM (inactive)
- GI50 [16]: > 100 µM (inactive)
- GI50 [17]: > 100 µM (inactive)

Compound: COC(=O)C1Cc2c(OC)ccc(OC)c2C(O)C1C(=O)OC (configuration not stated)
- GI50 [1]: > 100 µM (inactive)
- GI50 [2]: > 100 µM (inactive)
- GI50 [3]: > 100 µM (inactive)
- GI50 [4]: > 100 µM (inactive)
- GI50 [5]: > 100 µM (inactive)
- GI50 [6]: > 100 µM (inactive)
- GI50 [7]: > 100 µM (inactive)
- GI50 [8]: > 100 µM (inactive)
- GI50 [9]: > 100 µM (inactive)
- GI50 [10]: > 100 µM (inactive)
- GI50 [11]: > 100 µM (inactive)
- GI50 [12]: > 100 µM (inactive)
- GI50 [13]: > 100 µM (inactive)
- GI50 [14]: > 100 µM (inactive)
- GI50 [15]: > 100 µM (inactive)
- GI50 [16]: > 100 µM (inactive)
- GI50 [17]: > 100 µM (inactive)

Compound: CS(=O)(=O)N1CC(CCl)c2ccc(O)cc21 (configuration not stated)
- GI50 [1]: 2.04 µM (inactive)
- GI50 [2]: 2.09 µM (inactive)
- GI50 [3]: 2.95 µM (inactive)
- GI50 [4]: 2.6 µM (inactive)
- GI50 [5]: 2.86 µM (inactive)
- GI50 [6]: 1.52 µM (inactive)
- GI50 [7]: 2.44 µM (inactive)
- GI50 [8]: 2.32 µM (inactive)
- GI50 [9]: 2.9 µM (inactive)
- GI50 [10]: 2.86 µM (inactive)
- GI50 [11]: 1.57 µM (inactive)
- GI50 [12]: 0.155 µM (active)
- GI50 [13]: 1.9 µM (inactive)
- GI50 [14]: 2.47 µM (inactive)
- GI50 [15]: 3.57 µM (inactive)
- GI50 [16]: 2.71 µM (inactive)
- GI50 [17]: 2.74 µM (inactive)

Compound: Cc1ccc2c(c1)[n+]([O-])c(N)n[n+]2[O-]
- GI50 [1]: > 100 µM (inactive)
- GI50 [2]: > 100 µM (inactive)
- GI50 [3]: > 100 µM (inactive)
- GI50 [4]: > 100 µM (inactive)
- GI50 [5]: > 100 µM (inactive)
- GI50 [6]: > 100 µM (inactive)
- GI50 [7]: > 100 µM (inactive)
- GI50 [8]: > 100 µM (inactive)
- GI50 [9]: 47.8 µM (inactive)
- GI50 [10]: > 100 µM (inactive)
- GI50 [11]: > 100 µM (inactive)
- GI50 [12]: > 100 µM (inactive)
- GI50 [13]: 63.1 µM (inactive)
- GI50 [14]: > 100 µM (inactive)
- GI50 [15]: 85.3 µM (inactive)
- GI50 [16]: > 100 µM (inactive)
- GI50 [17]: > 100 µM (inactive)
